{
  "source": "paper PMC6754133",
  "about": "(PLoS ONE, 2019)",
  "key": {"[1]": {"details": "cited from earlier work"}, "[2]": {"test_system": "nuclear Gli-1 in DAOY cells", "assay": "Western blot quantitation of nuclear Gli-1", "type": "cell-based, human", "details": "NS conditions, 24-hour treatment, 5 μM (Fig 6f, S4 Fig)", "method": "(§1) Nuclear fractions were prepared from cell pellets according to the method of Schreiber et. al.[81] with minor modifications. […] After 24 hours, cells were lifted from the wells by pipetting, transferred to 1.5 mL Eppendorf tubes, centrifuged at 10,000 x g for 1 minutes at 4°C, and washed once in PBS. Following supernatant removal by vacuum, cells were lysed using a plasma membrane lysis buffer [10 mM HEPES; pH 7.5, 10 mM KCl, 0.1 mM EDTA, 1 mM dithiothreitol (DTT), 0.5% Nonidet P‐40 and 0.5 mM PMSF along with 1× protease inhibitor cocktail (Sigma)] and allowed to swell on ice for 15‐20 min with intermittent mixing. Next, tubes were vortexed to disrupt cell membranes and then centrifuged at 12,000 × g at 4°C for 10 min. […] The pelleted nuclei were washed with the plasma membrane lysis buffer and re-suspended in the nuclear extraction buffer [20 mM HEPES (pH 7.5), 400 mM NaCl, 1 mM EDTA, 1 mM DTT, 1 mM PMSF with 1× protease inhibitor cocktail] and incubated on ice for 30 min. The tubes were centrifuged at 12,000 ×g for 25 min at 4°C and the supernatant (now containing the soluble fraction of the cell nuclei) was collected. Total protein concentrations were determined using the Bio-Rad Protein Assay (Bio-Rad, Hercules, CA). Nuclear extracts containing the total of 40 μg protein were separated on a 10% Tris-SDS PAGE gel (Bio-Rad Mini-PROTEAN® TGX). Gels were transferred on nitrocellulose membranes using Bio-Rad TransBlot system, after which the membranes were blocked in the blocking buffer [5% nonfat dry milk in 1× Tris Buffer Saline + 0.1% Tween 20 (TBST)] for 2 hours at room temperature. Following blocking, the membranes were washed four times with TBST (5 minutes gentle rocking per wash) and incubated overnight with primary antibody Rabbit anti-Gli-1 (Cell signaling, #C68H3); 1:250 dilution in TBST-Milk at 4°C with gentle rocking. Membranes were washed three times with TBST for 5 min each."}, "[3]": {"test_system": "nuclear Gli-1 in MB-PDX cells", "assay": "Western blot quantitation of nuclear Gli-1", "type": "cell-based, human", "details": "NS conditions, 24-hour treatment, 5 μM (Fig 6f, S4 Fig)", "method": "as §1"}, "[4]": {"test_system": "Gli-1 mRNA in Math1-Cre; ptch1-flox/flox cells", "assay": "qRT-PCR of Gli-1 mRNA in Math1-Cre; ptch1-flox/flox (PTCH -/-) cells treated ex vivo", "type": "cell-based, mouse", "details": "10 μM ex vivo, 24 hours", "method": "An in vivo medulloblastoma model was established as described before. Briefly, 6–7 weeks old NOD-scid IL-2Rg null (NSG) mice (the Jackson Laboratory) were anesthetized with xylazine-ketamine, and […]. Dissociated Math1-Cre; ptch1-flox/flox cells (1×10^6 cells in 4 μL HBSS)[58] were injected into the mouse brains using murine stereotaxic system (Stoelting Co). The coordinates were: 1.8mm to the right of bregma and 3mm deep from the dura. To disassociate the orthotopic tumor into the single cells for the serial implantation or the ex-vivo experiment, the tumor was dissected from the cerebellum, followed by digestion using Papain (10 U per mL), DNase (250 U) and L-cystein (2 mg) at 37°C for 30 min.\nBoth post-vivo MB-PDX cells and Math1-Cre; ptch1-flox/flox cells were analyzed for Gli-1 mRNA expression. For that, total RNA was extracted from dissociated single cells using QIAGEN RNease Mini Kit and cDNA was prepared using 1μg RNA with iScript cDNA Synthesis Kit (Bio-Rad). SYBR green-based QPCR was performed using murine primers listed as below (GLI1, Forward 5’- […]-3’, Reverse 5’-[…]-3’, GAPDH Forward 5'-[…] -3', Reverse 5'-[…]-3'). mRNA levels were normalized to GAPDH (dCt = Ct gene of interest–Ct GAPDH) and reported as relative mRNA expression (ddCt = 2-^(dCt sample–dCt control)) in fold change."}},
  "data": [
    {"smiles": "Cc1cn(-c2cc(NC(=O)c3ccc(C)c(Nc4nccc(-c5cccnc5)n4)c3)cc(C(F)(F)F)c2)cn1", "note": "[Nilotinib]", "values": [
      {"measurement": "Trough concentration, Cmin", "setting": "[1]; clinically achievable concentrations", "result": "1600 to 2600", "unit": "nM"},
      {"measurement": "Average Cmin", "setting": "[1]; human plasma", "result": 2600, "unit": "nM"},
      {"measurement": "Cmax", "setting": "[1]; human plasma", "result": 3300, "unit": "nM"},
      {"measurement": "Trough concentration (Cmin) in human plasma", "setting": "[1]; standard dosing of 400 mg twice daily", "result": "1650 to 2380", "unit": "nM"},
      {"measurement": "Nuclear Gli-1, mean, % of untreated samples", "setting": "[2]", "result": 46, "unit": "%"},
      {"measurement": "Nuclear Gli-1, mean, % of untreated samples", "setting": "[3]", "result": 41, "unit": "%"},
      {"measurement": "Gli-1 mRNA expression versus vehicle treated cells", "setting": "[4]", "result": "significant reduction in Gli-1 mRNA expression"}
    ]}
  ]
}
